Literature values as cited in patent US20190381003A1, “PHARMACEUTICAL COMPOSITION FOR TREATMENT OF INFLAMMATORY EAR DISEASES, METHOD FOR PRODUCING SAME AND METHOD FOR TREATMENT USING SAME COMPOSITION” (LIMITED LIABILITY COMPANY "KONSORTSIUM-PIK", priority 2017, published 2019).

Key:
[1] = following oral administration

## Cc1c(C(C)C)c(=O)n(-c2ccccc2)n1C [Propyphenazone, 1,5-Dimethyl-2-phenyl-4-propan-2-yl-pyrazol-3-one]
[1]
  time to maximal blood level: ≤ 30 min

## CCCNC(C)C(=O)Nc1c(C)csc1C(=O)OC (racemic) [Articaine, (RS)-Methyl 4-methyl-3-(2-propylaminopropanoylamino)thiophene-2-carboxylate]
Following drug administration
  persistence of anaesthesia: 1 to 5 h
vs. lidocaine
  analgesic effects, potency vs. lidocaine: 2 fold
vs. procaine
  analgesic effects, potency vs. procaine: 6 fold
